# Target: T1, CCR1 (Homo sapiens, UniProt P32246)
# T1 sequence (P32246 1-355): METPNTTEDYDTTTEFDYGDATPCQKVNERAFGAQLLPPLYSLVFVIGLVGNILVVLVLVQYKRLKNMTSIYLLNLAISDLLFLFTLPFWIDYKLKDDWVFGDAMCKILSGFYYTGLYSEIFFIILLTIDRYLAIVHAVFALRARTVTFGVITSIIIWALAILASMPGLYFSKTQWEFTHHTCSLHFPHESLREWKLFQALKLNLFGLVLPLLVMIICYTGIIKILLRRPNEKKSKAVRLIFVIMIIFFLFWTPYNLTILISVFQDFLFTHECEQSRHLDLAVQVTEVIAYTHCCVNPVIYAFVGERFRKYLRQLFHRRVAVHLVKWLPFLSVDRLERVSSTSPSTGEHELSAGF
# Assay: Method A: calcium flux in CCR1 transfected cells (Fluo-4 NW, FLIPR TETRA), block of the CCR1/MIP-1α interaction
# Type: cell-based
# Conditions: Method A: Fluo-4 NW, MIP-1 alpha at EC80
# In short: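 Non-adherent cells stably expressing recombinant CCR1 and G-alpha-16, Fluo-4 NW-loaded 1 h at room temperature, preincubated 1 h with compound (top 3,000 nM, 4-fold, 10 doses; 1% DMSO) in HBSS/20 mM HEPES pH 7.4. MIP-1 alpha added at EC80; intracellular calcium flux recorded on FLIPR TETRA.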
row,IC50 [nM],Structure (SMILES)
1,9,"O=C(NCc1ccc(N2CCCCS2(=O)=O)nc1)c1cncc2c1cnn2-c1ccc(F)cc1 [1-(4-Fluorophenyl)-1H-pyrazolo[3,4-c]pyridine-4-carboxylic acid [6-(1,1-dioxo-1λ6-perhydro-1,2-thiazin-2-yl)-pyridin-3-ylmethyl]-amide]"
2,7,"CS(=O)(=O)Nc1ccc(CNC(=O)c2cncc3c2cnn3-c2ccc(F)cc2)cc1 [1-(4-Fluorophenyl)-1H-pyrazolo[3,4-c]pyridine-4-carboxylic acid 4-methanesulfonylamino-benzylamide]"
3,0.4,"CCC(NC(=O)c1cncc2c1cnn2-c1ccc(F)cc1)c1ccnc(Br)c1 (stereo not drawn) [1-(4-Fluorophenyl)-1H-pyrazolo[3,4-c]pyridine-4-carboxylic acid [1-(2-bromopyridin-4-yl)-propyl]-amide]"
4,2,"CCCC(NC(=O)c1cncc2c1cnn2-c1ccc(Cl)cc1)c1ccnc(Br)c1 (stereo not drawn) [1-(4-Chlorophenyl)-1H-pyrazolo[3,4-c]pyridine-4-carboxylic acid [1-(2-bromopyridin-4-yl)-butyl]-amide]"
5,1,"CN(C)S(=O)(=O)N(C)c1ccc(CNC(=O)c2cncc3c2cnn3-c2ccc(F)cc2)cn1 [1-(4-Fluorophenyl)-1H-pyrazolo[3,4-c]pyridine-4-carboxylic acid [6-(dimethylamino-sulfonylmethylamino)-pyridin-3-ylmethyl]-amide]"
6,22,"CN(C)CCN(c1ccc(CNC(=O)c2cncc3c2cnn3-c2ccc(F)cc2)cn1)S(C)(=O)=O [1-(4-Fluorophenyl)-1H-pyrazolo[3,4-c]pyridine-4-carboxylic acid {6-[(2-dimethylamino-ethyl)-methanesulfonyl-amino]-pyridin-3-ylmethyl}-amide]"
7,0.4,"CCCC(NC(=O)c1cncc2c1cnn2-c1ccc(F)cc1)c1cncc(S(N)(=O)=O)c1 (stereo not drawn) [1-(4-Fluorophenyl)-1H-pyrazolo[3,4-c]pyridine-4-carboxylic acid [1-(5-sulfamoyl-pyridin-3-yl)-butyl]-amide]"
8,3,"CC(C)NS(=O)(=O)Cc1ccc(CNC(=O)c2cncc3c2cnn3-c2ccc(F)cc2)cc1 [1-(4-Fluorophenyl)-1H-pyrazolo[3,4-c]pyridine-4-carboxylic acid 4-(isopropylsulfamoyl-methyl)-benzylamide]"
9,5,"C[C@H](NC(=O)c1cncc2c1cnn2-c1ccc(F)cc1)c1cccc(Br)n1 [1-(4-Fluorophenyl)-1H-pyrazolo[3,4-c]pyridine-4-carboxylic acid [(S)-1-(6-bromopyridin-2-yl)-ethyl]-amide]"
10,6,"C[C@H](NC(=O)c1cncc2c1cnn2-c1ccc(F)cc1)c1cccc(S(C)(=O)=O)n1 [1-(4-Fluorophenyl)-1H-pyrazolo[3,4-c]pyridine-4-carboxylic acid [(S)-1-(6-methanesulfonyl-pyridin-2-yl)-ethyl]-amide]"
11,34,"CS(=O)(=O)c1ccc(CNC(=O)c2cncc3c2cnn3-c2ccc(Cl)cc2)cn1 [1-(4-Chlorophenyl)-1H-pyrazolo[3,4-c]pyridine-4-carboxylic acid (6-methanesulfonyl-pyridin-3-ylmethyl)-amide]"
12,1,"CCCC(NC(=O)c1cncc2c1cnn2-c1ccc(Cl)cc1)c1ccc(S(C)(=O)=O)nc1 (stereo not drawn) [1-(4-Chlorophenyl)-1H-pyrazolo[3,4-c]pyridine-4-carboxylic acid [1-(6-methanesulfonyl-pyridin-3-yl)-butyl]-amide]"
13,6,"O=C(NCc1ccc(CS(=O)(=O)N2CCCCC2)cc1)c1cncc2c1cnn2-c1ccc(F)cc1 [1-(4-Fluorophenyl)-1H-pyrazolo[3,4-c]pyridine-4-carboxylic acid 4-(piperidine-1-sulfonylmethyl)-benzylamide]"
14,6,"O=C(NCc1cccc(C(F)(F)F)c1)c1c[n+]([O-])cc2c1cnn2-c1ccc(F)cc1 [1-(4-Fluorophenyl)-6-oxy-1H-pyrazolo[3,4-c]pyridine-4-carboxylic acid 3-trifluoromethyl-benzylamide]"
15,1,"O=C(NCc1ccc(S(=O)(=O)NCCO)cc1)c1cncc2c1cnn2-c1ccc(F)cc1 [1-(4-Fluorophenyl)-1H-pyrazolo[3,4-c]pyridine-4-carboxylic acid 4-(2-hydroxy-ethylsulfamoyl)-benzylamide]"
16,30,"CC(NC(=O)c1cncc2c1cnn2-c1ccc(F)cc1)c1ccc(Br)nc1 (stereo not drawn) [1-(4-Fluorophenyl)-1H-pyrazolo[3,4-c]pyridine-4-carboxylic acid [1-(6-bromopyridin-3-yl)-ethyl]-amide]"
17,1,"CNS(=O)(=O)c1ccc(CNC(=O)c2cncc3c2cnn3-c2ccc(F)cc2)cc1F [1-(4-Fluorophenyl)-1H-pyrazolo[3,4-c]pyridine-4-carboxylic acid 3-fluoro-4-methylsulfamoyl-benzylamide]"

row,IC50 [nM],Structure (SMILES)
1,1,"CN(C)S(=O)(=O)c1ccc(CNC(=O)c2cncc3c2cnn3-c2ccc(F)cc2)cn1 [1-(4-Fluorophenyl)-1H-pyrazolo[3,4-c]pyridine-4-carboxylic acid (6-dimethylsulfamoyl-pyridin-3-ylmethyl)-amide]"
2,0.4,"CCCC(NC(=O)c1cncc2c1cnn2-c1ccc(F)cc1)c1cncc(Br)c1 (stereo not drawn) [1-(4-Fluorophenyl)-1H-pyrazolo[3,4-c]pyridine-4-carboxylic acid [1-(5-bromopyridin-3-yl)-butyl]-amide]"
3,0.6,"CCCC(NC(=O)c1cncc2c1cnn2-c1ccc(F)cc1)c1cncc(S(C)(=O)=O)c1 (stereo not drawn) [1-(4-Fluorophenyl)-1H-pyrazolo[3,4-c]pyridine-4-carboxylic acid [1-(5-methanesulfonyl-pyridin-3-yl)-butyl]-amide]"
4,2,"COc1cc(CNC(=O)c2cncc3c2cnn3-c2ccc(F)cc2)ccn1 [1-(4-Fluorophenyl)-1H-pyrazolo[3,4-c]pyridine-4-carboxylic acid (2-methoxy-pyridin-4-ylmethyl)-amide]"
5,1,"CN1CCN(S(=O)(=O)c2ccc(CNC(=O)c3cncc4c3cnn4-c3ccc(F)cc3)cc2)CC1 [1-(4-Fluorophenyl)-1H-pyrazolo[3,4-c]pyridine-4-carboxylic acid 4-(4-methyl-piperazine-1-sulfonyl)-benzylamide]"
6,25,"CS(=O)(=O)Nc1ccc(CNC(=O)c2cncc3c2cnn3-c2ccc(F)cc2)cn1 [1-(4-Fluorophenyl)-1H-pyrazolo[3,4-c]pyridine-4-carboxylic acid (6-methanesulfonylamino-pyridin-3-ylmethyl)-amide]"
7,31,"CCS(=O)(=O)c1ccc(CNC(=O)c2cncc3c2cnn3-c2ccc(F)cc2)cn1 [1-(4-Fluorophenyl)-1H-pyrazolo[3,4-c]pyridine-4-carboxylic acid (6-ethanesulfonyl-pyridin-3-ylmethyl)-amide]"
8,2,"CC(=O)OCCN(C)S(=O)(=O)c1ccc(CNC(=O)c2cncc3c2cnn3-c2ccc(F)cc2)cc1 [Acetic acid 2-{[4-({[1-(4-fluorophenyl)-1H-pyrazolo[3,4-c]pyridine-4-carbonyl]-amino}-methyl)-benzenesulfonyl]-methyl-amino}-ethyl ester]"
9,33,"CN1CCC(N(C)S(=O)(=O)Cc2ccc(CNC(=O)c3cncc4c3cnn4-c3ccc(F)cc3)cc2)CC1 [1-(4-Fluorophenyl)-1H-pyrazolo[3,4-c]pyridine-4-carboxylic acid 4-{[methyl-(1-methyl-piperidin-4-yl)-sulfamoyl]-methyl}-benzylamide]"
10,0.2,"CC[C@H](NC(=O)c1cncc2c1cnn2-c1ccc(F)cc1)c1cncc(Br)c1 [1-(4-Fluorophenyl)-1H-pyrazolo[3,4-c]pyridine-4-carboxylic acid [(S)-1-(5-bromopyridin-3-yl)-propyl]-amide]"
11,0.2,"CCC[C@H](NC(=O)c1cncc2c1cnn2-c1ccc(F)cc1)c1cncc(Br)c1 [1-(4-Fluorophenyl)-1H-pyrazolo[3,4-c]pyridine-4-carboxylic acid [(S)-1-(5-bromopyridin-3-yl)-butyl]-amide]"
12,7,"CS(=O)(=O)c1cccc(CNC(=O)c2cncc3c2cnn3-c2ccc(Cl)cc2)c1 [1-(4-Chlorophenyl)-1H-pyrazolo[3,4-c]pyridine-4-carboxylic acid 3-methanesulfonyl-benzylamide]"
13,17,"O=C(NCc1ccc(S(=O)(=O)NC2CCOCC2)nc1)c1cncc2c1cnn2-c1ccc(F)cc1 [1-(4-Fluorophenyl)-1H-pyrazolo[3,4-c]pyridine-4-carboxylic acid [6-(tetrahydropyran-4-ylsulfamoyl)-pyridin-3-ylmethyl]-amide]"
14,2,"CC(O)CNS(=O)(=O)c1ccc(CNC(=O)c2cncc3c2cnn3-c2ccc(F)cc2)cc1 (stereo not drawn) [1-(4-Fluorophenyl)-1H-pyrazolo[3,4-c]pyridine-4-carboxylic acid 4-(2-hydroxy-propylsulfamoyl)-benzylamide]"
15,24,"CS(=O)(=O)c1ccc(CNC(=O)c2cncc3c2cnn3-c2ccc(F)cc2)cc1O [1-(4-Fluorophenyl)-1H-pyrazolo[3,4-c]pyridine-4-carboxylic acid 3-hydroxy-4-methanesulfonyl-benzylamide]"
16,2,"CCC[C@H](NC(=O)c1cncc2c1cnn2-c1ccc(F)cc1)c1cncc(S(=O)(=O)CCC(=O)OC)c1 [3-[5-((S)-1-{[1-(4-Fluorophenyl)-1H-pyrazolo[3,4-c]pyridine-4-carbonyl]-amino}-butyl)-pyridine-3-sulfonyl]-propionic acid methyl ester]"

# — US8063065B2, “Azaindazole compounds as CCR1 receptor antagonists” (Boehringer Ingelheim International GmbH, priority 2008, dated 2011)
